Assay results from patent US7998754B2, “In vitro method for the simultaneous detection and identification of antibiotics of different classes and corresponding diagnostic kit” (Unisensor S.A., priority 2005, dated 2011).
Where two headings read alike, the source gives them in different places.

What was measured:
[1] = biological target: T1, β-lactame receptor (RSA) (Staphylococcus aureus, UniProt P18357); type: binding; conditions: milk
T1 construct: made in house
T1 sequence (P18357 331-585 limits assumed): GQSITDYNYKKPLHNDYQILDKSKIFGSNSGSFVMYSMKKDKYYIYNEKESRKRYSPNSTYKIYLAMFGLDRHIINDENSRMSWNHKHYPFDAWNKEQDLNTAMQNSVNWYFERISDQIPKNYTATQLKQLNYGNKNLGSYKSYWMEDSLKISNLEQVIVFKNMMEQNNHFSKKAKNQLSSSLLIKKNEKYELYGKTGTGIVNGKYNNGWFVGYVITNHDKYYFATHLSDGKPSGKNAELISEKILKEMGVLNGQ
Experimental: (§1) This mixture is prepared either as required or lyophilisated for 20 hours. The Recovery System
(§2) The other capture zones are identical but differently positioned, as in FIG. 2.
(§3) A single control zone serves as a reference for the three markers.
(§4) 200 μL of cold milk are incubated at 50° C. in the presence of 50 μl of the reagents prepared and/or lyophilisated as above. After 3 minutes of incubation at 50° C., the above-described recovery element is immersed in the solution. The final interpretation is made after 3 minutes of incubation by means of an optical dipstick reader available at Matest (Germany).
(§5) As a general rule, if the ratio of the intensities of the concerned test signal relative to the control signal is less than or equal to 1, the sample is considered as positive for the parameter (compound) concerned.

[2] = test system: tetracycline receptor (TetR); assay: Example 2 three-parameter dipstick test in milk, tetracycline capture zone (format 1); type: binding, E. Coli
Experimental: as §1, §2, §3, §4, §5

[3] = test system: tetracycline receptor (TetR); assay: Example 5 dipstick test in milk, tetracycline capture zone (format 1); type: binding, E. Coli
Experimental: (§6) This mixture is either prepared as required or lyophilisated for 20 hours.
(§7) 200 μL of cold milk are incubated for 15 minutes at 30° C. in the presence of 50 μL of the reagents prepared above. After this first incubation, the above-described recovery element is immersed in the solution. Final interpretation is made after a second incubation of 15 minutes.

[4] = test system: polyclonal antisulfamide rabbit antibody; assay: Example 5 dipstick test in milk, sulfamide capture zone (format 2); type: binding
Experimental: as §6, §7

[5] = test system: antisulfamide rabbit antibody; assay: Example 4 dipstick test in meat (pig muscle) extract, sulfamide capture zone (format 2); type: binding
Experimental: (§8) This mixture is either prepared as required or lyophilisated for 20 hours. The Recovery System
(§9) The recovery system is similar to that of example 1. However, in the present case, it is an anti-mouse antibody that forms the first capture point where the monoclonal anti-TetR antibody will be recovered and it is a chicken anti-rabbit antibody that forms the second capture point where the antisulfamide antibody will be recovered.
(§10) 30 ml of a buffer of NaPi 50 mM, pH 8 is added to 10 g of pig muscle and the mixture is mixed with a mixer of type MiniMix (Interscience, F) for 2 minutes. The solution, collected in an Eppendorf tube, is then centrifuged for 1 minute at 6,000 rpm to recover the supernatant from it. 200 μL of supernatant are incubated for 15 minutes at 25° C. in the presence of 50 μL of the reagents prepared above. After this first incubation, the above-described recovery element is immersed in the solution. The final interpretation is made after a second incubation of 15 minutes.

[6] = test system: tetracycline receptor (TetR); assay: Example 4 dipstick test in meat (pig muscle) extract, tetracycline capture zone (format 2); type: binding, E. Coli
Experimental: as §8, §9, §10

[7] = test system: anti-sulfadimethoxin antibody; assay: Example 2 three-parameter dipstick test in milk, sulfadimethoxin capture zone (format 1); type: binding
Experimental: as §1, §2
The preparation is achieved by the procedure described by Dixon-Holland and Katz^(9). 100 mg of sulfadimethoxin and 200 mg of BSA solubilized in 25 ml of a mixture, comprising two parts of a phosphate buffer of 50 mM, pH 7.2 and 1 part of dioxane, are incubated in the presence of 120 μL of 25% glutaraldehyde stirred for 3 hours at 25° C. The solution is then dialysed for 6 days at 4° C. against 100 volumes of a buffer of NaPi 50 mM, pH 7.2 with a change of buffer every 12 hours.
as §3, §4, §5

[8] = biological target: T1, β-lactame receptor (RSA); type: binding; conditions: milk; remark: listed apart in the source
Experimental: (§11) The reactive mixture comprises: • 5 parts of β-lactame receptor (RSA) at a concentration of 360 nM; • 10 parts of a monoclonal anti-RSA antibody attached to colloidal gold (OD=10 at 520 nm); • 1 part of biotinylated and diluted anti-sulfadimethoxin in NaPi 50 mM, NaCl 150 mM, pH 7.8; • 10 parts of a dilution of BSA-sulfadimethoxin-gold of 40 nm; • 24 parts of Hepes buffer 120 mM, pH 8, BSA 2%, Dextran 1%, sucrose 5%. This mixture is prepared either as required or lyophilisated for 20 hours. Biotinylation of the Anti-Sulfadimethoxin Antibody
(§12) The recovery system is identical to that of example 1. However, in the present case, it is the biotinylated antisulfamide antibody that will be recovered in the avidine fixed at the second capture point above the control zone.
as §7

[9] = test system: biotinylated anti-sulfadimethoxin antibody; assay: Example 3 dipstick test in milk, sulfamide capture zone (format 2); type: binding
Experimental: as §11
825 μL of a solution comprising 5 mg/ml of anti-sulfadimethoxin antibody dialysed in a carbonate buffer 100 mM, pH 9.2 are incubated in the presence of 165 μL of a solution of biotin-LC-NHS at 1.5 mg/ml (available at Perbio, Inc.) for 2 hours at 25° C. sheltered from light. The reaction is blocked by the addition of 10 μL of a solution of a Tris buffer 1M pH 8 for 30 minutes before dialysis 2× for 10 hours against a buffer of NaPi 50 mM, NaCl 150 mM, pH 7.8.
The preparation of BSA-sulfadimethoxin described in example no. 2 is used fixed to particles of colloidal gold in a protocol similar to that described in example no. 1 for preparing the control BSA-gold solution.
as §12, §7

[10] = biological target: T1, β-lactame receptor (RSA); type: binding; conditions: milk; remark: listed apart in the source
Experimental: as §6, §7

## COc1cc(NS(=O)(=O)c2ccc(N)cc2)nc(OC)n1 [Sulfadimethoxin]
[1]; sulfamide 50 ppb
  Ratio of the measurement intensities B/C: 2.4
[1]; sulfamide 100 ppb
  Ratio of the measurement intensities B/C: 2.2
[1]; sulfamide 150 ppb
  Ratio of the measurement intensities B/C: 1.9
[1]; sulfamide 200 ppb
  Ratio of the measurement intensities B/C: 2.4
[2]; sulfamide 50 ppb
  Ratio of the measurement intensities T/C: 1.9
[2]; sulfamide 100 ppb
  Ratio of the measurement intensities T/C: 1.9
[2]; sulfamide 150 ppb
  Ratio of the measurement intensities T/C: 2.1
[2]; sulfamide 200 ppb
  Ratio of the measurement intensities T/C: 2.1
[3]; sulfamide 50 ppb
  Ratio of the measurement intensities T/C: 2.8
[3]; sulfamide 100 ppb
  Ratio of the measurement intensities T/C: 2.7
[3]; sulfamide 200 ppb
  Ratio of the measurement intensities T/C: 3
[4]; sulfamide 50 ppb
  Ratio of the measurement intensities S/C: 1.3
[4]; sulfamide 100 ppb
  Ratio of the measurement intensities S/C: 0.9
[4]; sulfamide 200 ppb
  Ratio of the measurement intensities S/C: 0.3
[4]; β-lactame 4 + tetracycline 100 + sulfamide 100 ppb together
  Ratio of the measurement intensities S/C: 0.8
[5]; sulfamide 50 ppb
  Ratio of the measurement intensities S/C: 1.6
[5]; sulfamide 100 ppb
  Ratio of the measurement intensities S/C: 1
[5]; sulfamide 150 ppb
  Ratio of the measurement intensities S/C: 0.85
[5]; sulfamide 200 ppb
  Ratio of the measurement intensities S/C: 0.7
[5]; tetracycline 100 + sulfamide 100 ppb together
  Ratio of the measurement intensities S/C: 0.95
[6]; sulfamide 50 ppb
  Ratio of the measurement intensities T/C: 3.4
[6]; sulfamide 100 ppb
  Ratio of the measurement intensities T/C: 3.1
[6]; sulfamide 150 ppb
  Ratio of the measurement intensities T/C: 3.4
[6]; sulfamide 200 ppb
  Ratio of the measurement intensities T/C: 3
[7]; ampicillin 4 + tetracycline 75 + sulfamide 100 ppb together
  Ratio of the measurement intensities S/C: 0.7
[7]; at the detection limit concentration
  Ratio test/control: 0.8
[7]; sulfadimethoxin, three-parameter test
  Concentration detection limit: 100 ppb
[7]; sulfamide 50 ppb
  Ratio of the measurement intensities S/C: 1.3
[7]; sulfamide 100 ppb
  Ratio of the measurement intensities S/C: 0.8
[7]; sulfamide 150 ppb
  Ratio of the measurement intensities S/C: 0.6
[7]; sulfamide 200 ppb
  Ratio of the measurement intensities S/C: 0.4
[8]; sulfamide 50 ppb
  Ratio of the measurement intensities B/C: 1.95
[8]; sulfamide 100 ppb
  Ratio of the measurement intensities B/C: 1.9
[8]; sulfamide 150 ppb
  Ratio of the measurement intensities B/C: 2.2
[8]; sulfamide 200 ppb
  Ratio of the measurement intensities B/C: 2.1
[9]; sulfamide 50 ppb
  Ratio of the measurement intensities S/C: 2
[9]; sulfamide 100 ppb
  Ratio of the measurement intensities S/C: 1
[9]; sulfamide 150 ppb
  Ratio of the measurement intensities S/C: 0.85
[9]; sulfamide 200 ppb
  Ratio of the measurement intensities S/C: 0.7
[9]; β-lactame 4 + sulfamide 100 ppb together
  Ratio of the measurement intensities S/C: 0.95
[10]; sulfamide 50 ppb
  Ratio of the measurement intensities B/C: 2.1
[10]; sulfamide 100 ppb
  Ratio of the measurement intensities B/C: 1.8
[10]; sulfamide 200 ppb
  Ratio of the measurement intensities B/C: 1.8
